Measurements: ChEMBL document CHEMBL5036350, “Binding site comparison for coumarin inhibitors and amine/amino acid activators of human carbonic anhydrases” (Eur J Med Chem, 2021)
Values belong to the compound of their own block, whether it stands above or below them.

What was measured:
Conditions in all cases: filed as activator
[1] = target: Carbonic anhydrase 13 (Homo sapiens) (UniProt Q8N1Q1); test: Activation of human carbonic anhydrase 13 by stopped flow assay
[2] = target: Carbonic anhydrase 2 (Homo sapiens) (UniProt P00918); test: Activation of human carbonic anhydrase 2 by stopped flow assay
[3] = target: Carbonic anhydrase 4 (Homo sapiens) (UniProt P22748); test: Activation of human carbonic anhydrase 4 by stopped flow assay
[4] = target: Carbonic anhydrase 14 (Homo sapiens) (UniProt Q9ULX7); test: Activation of human carbonic anhydrase 14 by stopped flow CO2 hydrase assay
[5] = target: Carbonic anhydrase 7 (Homo sapiens) (UniProt P43166); test: Activation of human carbonic anhydrase 7 by stopped flow assay
[6] = target: Carbonic anhydrase 5A, mitochondrial (Homo sapiens) (UniProt P35218); test: Activation of human carbonic anhydrase 5A by stopped flow assay
Carbonic anhydrase 5A, mitochondrial (Homo sapiens), sequence (P35218 whole entry): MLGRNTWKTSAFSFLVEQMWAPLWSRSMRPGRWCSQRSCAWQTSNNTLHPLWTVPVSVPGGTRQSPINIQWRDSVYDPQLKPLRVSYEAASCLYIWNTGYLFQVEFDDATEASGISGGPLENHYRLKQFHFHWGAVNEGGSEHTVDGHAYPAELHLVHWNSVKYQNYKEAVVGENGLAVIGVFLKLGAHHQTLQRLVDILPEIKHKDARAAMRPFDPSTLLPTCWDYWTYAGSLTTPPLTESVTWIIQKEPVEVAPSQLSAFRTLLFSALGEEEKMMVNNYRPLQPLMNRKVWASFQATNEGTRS

Carbonic anhydrase 13 (Homo sapiens), sequence (Q8N1Q1 whole entry, looked up): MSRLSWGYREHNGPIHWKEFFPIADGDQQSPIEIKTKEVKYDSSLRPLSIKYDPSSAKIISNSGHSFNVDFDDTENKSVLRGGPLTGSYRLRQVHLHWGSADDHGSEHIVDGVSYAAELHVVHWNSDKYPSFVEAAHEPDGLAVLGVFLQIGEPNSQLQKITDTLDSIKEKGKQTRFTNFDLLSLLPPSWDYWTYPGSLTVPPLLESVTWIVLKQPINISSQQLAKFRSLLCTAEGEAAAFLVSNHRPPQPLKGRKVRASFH
Carbonic anhydrase 14 (Homo sapiens), sequence (Q9ULX7 whole entry): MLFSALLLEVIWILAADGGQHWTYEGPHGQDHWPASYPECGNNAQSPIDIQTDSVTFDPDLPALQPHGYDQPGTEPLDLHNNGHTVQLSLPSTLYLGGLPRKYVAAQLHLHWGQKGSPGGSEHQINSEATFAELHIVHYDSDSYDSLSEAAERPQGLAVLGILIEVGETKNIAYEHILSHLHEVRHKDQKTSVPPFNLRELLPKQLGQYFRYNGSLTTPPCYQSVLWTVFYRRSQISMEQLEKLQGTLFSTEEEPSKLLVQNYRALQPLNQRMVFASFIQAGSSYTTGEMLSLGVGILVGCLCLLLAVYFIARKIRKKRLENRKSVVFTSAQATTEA
Carbonic anhydrase 7 (Homo sapiens), sequence (P43166 whole entry): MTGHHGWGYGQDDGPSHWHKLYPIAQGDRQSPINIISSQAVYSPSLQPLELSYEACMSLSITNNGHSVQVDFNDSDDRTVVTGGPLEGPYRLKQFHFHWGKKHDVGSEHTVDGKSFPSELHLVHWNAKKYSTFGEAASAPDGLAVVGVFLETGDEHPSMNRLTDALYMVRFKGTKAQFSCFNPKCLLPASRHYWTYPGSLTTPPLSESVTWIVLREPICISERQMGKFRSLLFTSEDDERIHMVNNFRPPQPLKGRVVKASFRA
Carbonic anhydrase 4 (Homo sapiens), sequence (P22748 whole entry): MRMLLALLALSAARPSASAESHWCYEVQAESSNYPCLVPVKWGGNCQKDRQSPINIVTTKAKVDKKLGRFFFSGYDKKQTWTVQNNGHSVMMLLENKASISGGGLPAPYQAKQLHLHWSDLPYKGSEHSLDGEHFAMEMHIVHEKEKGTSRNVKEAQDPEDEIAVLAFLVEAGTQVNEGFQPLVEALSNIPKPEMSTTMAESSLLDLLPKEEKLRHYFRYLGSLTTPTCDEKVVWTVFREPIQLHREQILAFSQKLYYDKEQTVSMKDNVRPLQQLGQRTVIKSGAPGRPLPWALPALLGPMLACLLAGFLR

Compound: NCCc1c[nH]cn1
KA [1]: 4.6 µM
KA [2]: 12.5 µM

Compound: N[C@H](Cc1c[nH]cn1)C(=O)O
KA [1]: 0.09 µM

Compound: N[C@@H](Cc1c[nH]cn1)C(=O)O
KA [1]: 0.13 µM

Further lines, results first:

KA [3]: 45 µM
KA [4]: 36 µM
KA [5]: 60 µM
KA [6]: 63 µM
Compound: CNC[C@H](O)c1ccc(O)c(O)c1

KA [1]: 0.81 µM
Compound: N[C@H](Cc1c[nH]c2ccccc12)C(=O)O
